Experimental data: ChEMBL document CHEMBL3091298, “Bis-phosphonium salts of pyridoxine: the relationship between structure and antibacterial activity” (Bioorg Med Chem, 2013)
≈ marks a conversion by molar mass, not a printed value.

What was measured:
Staphylococcus aureus = assay: Antibacterial activity against Staphylococcus aureus after 18 to 24 hrs; assay type: functional
Proteus sp. = assay: Antibacterial activity against Proteus sp. after 18 to 24 hrs; assay type: functional; details: Proteus sp. (in: enterobacteria)
Klebsiella pneumoniae = assay: Antibacterial activity against Klebsiella pneumoniae after 18 to 24 hrs; assay type: functional
[1] = system: Staphylococcus epidermidis; assay: Antibacterial activity against Staphylococcus epidermidis after 18 to 24 hrs; assay type: functional
[2] = Cytotoxicity against HEK293 cells after 72 hrs by MTT assay; assay type: cell-based; details: human, HEK293 cells
Salmonella typhimurium [3] = assay: Mutagenic activity in Salmonella typhimurium TA100 assessed as increase in number of revertants at 100 ug/ml by Ames test relative to solvent control; assay type: toxicity, organism-based; details: salmonella enterica subsp. enterica serovar typhimurium
[4] = Genotoxicity in uvrA-deficient Escherichia coli assessed as survival at 1 ug/ml after 6 hrs by DNA-repair test; assay type: toxicity, organism-based; details: read-out: Survival
[5] = Genotoxicity in polA-deficient Escherichia coli assessed as survival at 100 ug/ml after 6 hrs by DNA-repair test; assay type: toxicity, organism-based; details: read-out: Survival
Salmonella typhimurium [6] = assay: Mutagenic activity in Salmonella typhimurium TA100 assessed as increase in number of revertants at 10 ug/ml by Ames test relative to solvent control; assay type: toxicity, organism-based; details: salmonella enterica subsp. enterica serovar typhimurium
[7] = Genotoxicity in polA-deficient Escherichia coli assessed as survival at 10 ug/ml after 6 hrs by DNA-repair test; assay type: toxicity, organism-based; details: read-out: Survival
[8] = Genotoxicity in uvrA-deficient Escherichia coli assessed as survival at 100 ug/ml after 6 hrs by DNA-repair test; assay type: toxicity, organism-based; details: read-out: Survival
[9] = Genotoxicity in recA-deficient Escherichia coli assessed as survival at 10 ug/ml after 6 hrs by DNA-repair test; assay type: toxicity, organism-based; details: read-out: Survival
[10] = Genotoxicity in uvrA-deficient Escherichia coli assessed as survival at 10 ug/ml after 6 hrs by DNA-repair test; assay type: toxicity, organism-based; details: read-out: Survival
[11] = Genotoxicity in recA-deficient Escherichia coli assessed as survival at 1 ug/ml after 6 hrs by DNA-repair test; assay type: toxicity, organism-based; details: read-out: Survival
Salmonella typhimurium [12] = assay: Mutagenic activity in Salmonella typhimurium TA100 assessed as increase in number of revertants at 1 ug/ml by Ames test relative to solvent control; assay type: toxicity, organism-based; details: salmonella enterica subsp. enterica serovar typhimurium
[13] = Genotoxicity in polA-deficient Escherichia coli assessed as survival at 1 ug/ml after 6 hrs by DNA-repair test; assay type: toxicity, organism-based; details: read-out: Survival
[14] = Genotoxicity in recA-deficient Escherichia coli assessed as survival at 100 ug/ml after 6 hrs by DNA-repair test; assay type: toxicity, organism-based; details: read-out: Survival

Compound	MIC (Staphylococcus aureus) [µg/mL]	MIC (Proteus sp.) [µg/mL]	MIC (Klebsiella pneumoniae) [µg/mL]	MIC [1] [µg/mL]	CC50 at 72 h [2] [µg/mL]	further results
Cc1ccc([P+](Cc2nc(C)c(O)c(CO)c2C[P+](c2ccc(C)cc2)(c2ccc(C)cc2)c2ccc(C)cc2)(c2ccc(C)cc2)c2ccc(C)cc2)cc1.Cl.[Cl-].[Cl-]	> 1000	> 1000	> 1000	> 1000		
Cc1nc(C[P+](c2ccccc2)(c2ccccc2)c2ccccc2)c(C[P+](c2ccccc2)(c2ccccc2)c2ccccc2)c2c1OC(C)(C)OC2.[I-].[I-]	10	> 1000	> 1000	10		
Cc1nc(C[P+](c2ccccc2)(c2ccccc2)c2ccccc2)c(C[P+](c2ccccc2)(c2ccccc2)c2ccccc2)c2c1OC(C)OC2.[Cl-].[Cl-] (stereo not given)	12.5	> 1000	> 1000	10	33.9	
CCCC[P+](CCCC)(CCCC)Cc1nc(C)c2c(c1C[P+](CCCC)(CCCC)CCCC)COC(C)(C)O2.[Cl-].[Cl-]	1.25	> 1000	> 1000	1.25	200	Ratio (Salmonella typhimurium [3]): 1.04; viability at 6 h, 1 ug/ml [4]: 109%; viability at 6 h, 100 ug/ml [5]: 57.8%; Ratio (Salmonella typhimurium [6]): 1.21; viability at 6 h, 10 ug/ml [7]: 118%; viability at 6 h, 100 ug/ml [8]: 66.1%; viability at 6 h, 10 ug/ml [9]: 82.9%; viability at 6 h, 10 ug/ml [10]: 115%; viability at 6 h, 1 ug/ml [11]: 88.6%; Ratio (Salmonella typhimurium [12]): 0.82; viability at 6 h, 1 ug/ml [13]: 112%; viability at 6 h, 100 ug/ml [14]: 77.8%
Cc1cccc([P+](Cc2nc(C)c(O)c(CO)c2C[P+](c2cccc(C)c2)(c2cccc(C)c2)c2cccc(C)c2)(c2cccc(C)c2)c2cccc(C)c2)c1.Cl.[Cl-].[Cl-]	12.5	> 1000	> 1000	12.5		
Cc1nc(C[P+](c2ccccc2)(c2ccccc2)c2ccccc2)c(C[P+](c2ccccc2)(c2ccccc2)c2ccccc2)c2c1OC(C(C)C)OC2.[Cl-].[Cl-] (stereo not given)	10	> 1000	> 1000	5	2.57	
CCCCC1OCc2c(C[P+](c3ccccc3)(c3ccccc3)c3ccccc3)c(C[P+](c3ccccc3)(c3ccccc3)c3ccccc3)nc(C)c2O1.[Cl-].[Cl-] (stereo not given)	5	> 1000	1000	10	2	
CN[C@H](CC(C)C)C(=O)N[C@H]1C(=O)N[C@@H](CC(N)=O)C(=O)N[C@H]2C(=O)N[C@H]3C(=O)N[C@H](C(=O)N[C@H](C(=O)O)c4cc(O)cc(O)c4-c4cc3ccc4O)[C@H](O)c3ccc(c(Cl)c3)Oc3cc2cc(c3O[C@@H]2O[C@H](CO)[C@@H](O)[C@H](O)[C@H]2O[C@H]2C[C@](C)(N)[C@H](O)[C@H](C)O2)Oc2ccc(cc2Cl)[C@H]1O [VANCOMYCIN]	2.5 (≈ 1.73 µM)	> 1000	> 1000	2.5 (≈ 1.73 µM)	> 1000	
Cc1cccc([P+](Cc2nc(C)c3c(c2C[P+](c2cccc(C)c2)(c2cccc(C)c2)c2cccc(C)c2)COC(C)(C)O3)(c2cccc(C)c2)c2cccc(C)c2)c1.[Cl-].[Cl-]	1.25	> 1000	1000	1.25	13	
CCC1OCc2c(C[P+](c3ccccc3)(c3ccccc3)c3ccccc3)c(C[P+](c3ccccc3)(c3ccccc3)c3ccccc3)nc(C)c2O1.[Cl-].[Cl-] (stereo not given)	10	> 1000	> 1000	10	4	
CCCC1OCc2c(C[P+](c3ccc(C)cc3)(c3ccc(C)cc3)c3ccc(C)cc3)c(C[P+](c3ccc(C)cc3)(c3ccc(C)cc3)c3ccc(C)cc3)nc(C)c2O1.[Cl-].[Cl-] (stereo not given)	2.5	1000	1000	2.5	1	
Cc1nc(C[P+](c2ccccc2)(c2ccccc2)c2ccccc2)c(C[P+](c2ccccc2)(c2ccccc2)c2ccccc2)c2c1OC(C)(C)OC2.O=[N+]([O-])[O-].O=[N+]([O-])[O-]	100	> 1000	1000	100		
Cc1nc(C[P+](c2cccs2)(c2cccs2)c2cccs2)c(C[P+](c2cccs2)(c2cccs2)c2cccs2)c(CO)c1O.Cl.[Cl-].[Cl-]	1000	> 1000	> 1000	> 1000		

Continued by falling MIC (Staphylococcus aureus), values first:

MIC (Staphylococcus aureus) [µg/mL]	MIC (Proteus sp.) [µg/mL]	MIC (Klebsiella pneumoniae) [µg/mL]	MIC [1] [µg/mL]	Compound	CC50 at 72 h [2] [µg/mL]	further results
1000	> 1000	> 1000	1000	CCCC[P+](CCCC)(CCCC)Cc1nc(C)c(O)c(CO)c1C[P+](CCCC)(CCCC)CCCC.Cl.[Cl-].[Cl-]		
1000	> 1000	> 1000	1000	Cc1nc(C[P+](c2ccc(F)cc2)(c2ccc(F)cc2)c2ccc(F)cc2)c(C[P+](c2ccc(F)cc2)(c2ccc(F)cc2)c2ccc(F)cc2)c(CO)c1O.Cl.[Cl-].[Cl-]		
500	> 1000	> 1000	500	Cc1nc2c(c(CO)c1O)C[P+](c1ccccc1)(c1ccccc1)CC[P+](c1ccccc1)(c1ccccc1)C2.Cl.[Cl-].[Cl-]		
125	> 1000	> 1000	100	Cc1nc2c(c3c1OC(C)(C)OC3)C[P+](c1ccccc1)(c1ccccc1)CC[P+](c1ccccc1)(c1ccccc1)C2.[Cl-].[Cl-]		
100	> 1000	> 1000	100	Cc1nc(C[P+](c2cccs2)(c2cccs2)c2cccs2)c(C[P+](c2cccs2)(c2cccs2)c2cccs2)c2c1OC(C)(C)OC2.[Cl-].[Cl-]		
50	> 1000	> 1000	50	Cc1nc(C[P+](c2ccc(F)cc2)(c2ccc(F)cc2)c2ccc(F)cc2)c(C[P+](c2ccc(F)cc2)(c2ccc(F)cc2)c2ccc(F)cc2)c2c1OC(C)(C)OC2.[Cl-].[Cl-]		
10	> 1000	1000	10	CCCCCCCC1OCc2c(C[P+](c3ccccc3)(c3ccccc3)c3ccccc3)c(C[P+](c3ccccc3)(c3ccccc3)c3ccccc3)nc(C)c2O1.[Cl-].[Cl-] (stereo not given)	0.5	
10	> 1000	> 1000	10	Cc1nc(C[P+](c2ccccc2)(c2ccccc2)c2ccccc2)c(CO)c2c1OC(C)(C)OC2.[Br-]		
5	> 1000	1000	5	CCCCCC1OCc2c(C[P+](c3ccccc3)(c3ccccc3)c3ccccc3)c(C[P+](c3ccccc3)(c3ccccc3)c3ccccc3)nc(C)c2O1.[Cl-].[Cl-] (stereo not given)	1	
1	> 1000	> 1000	1	Cc1ccc([P+](Cc2nc(C)c3c(c2C[P+](c2ccc(C)cc2)(c2ccc(C)cc2)c2ccc(C)cc2)COC(C)(C)O3)(c2ccc(C)cc2)c2ccc(C)cc2)cc1.[Cl-].[Cl-]	29.5	
